Source: ChEMBL document CHEMBL4219155, “Structure-based drug design of 1,3,6-trisubstituted 1,4-diazepan-7-ones as selective human kallikrein 7 inhibitors” (Bioorg Med Chem Lett, 2018)

Experiments:
Kallikrein-7 = Kallikrein-7 (Homo sapiens, UniProt P49862); test: Inhibition of recombinant human KLK7 using MOCAc-Arg-Pro-Lys-Pro-Val-Glu-Nva-Trp-Arg-Lys(Dnp)-NH2 as substrate preincubated for 10 mins followed by substrate addition measured after 30 mins by fluorescence assay
Kallikrein-5 = target: T1, Kallikrein-5 (Homo sapiens, UniProt Q9Y337); test: Inhibition of recombinant human KLK5 using Boc-Val-Pro-Arg-MCA as substrate preincubated for 10 mins followed by substrate addition measured after 30 mins by fluorescence assay
T1 sequence (Q9Y337 whole entry): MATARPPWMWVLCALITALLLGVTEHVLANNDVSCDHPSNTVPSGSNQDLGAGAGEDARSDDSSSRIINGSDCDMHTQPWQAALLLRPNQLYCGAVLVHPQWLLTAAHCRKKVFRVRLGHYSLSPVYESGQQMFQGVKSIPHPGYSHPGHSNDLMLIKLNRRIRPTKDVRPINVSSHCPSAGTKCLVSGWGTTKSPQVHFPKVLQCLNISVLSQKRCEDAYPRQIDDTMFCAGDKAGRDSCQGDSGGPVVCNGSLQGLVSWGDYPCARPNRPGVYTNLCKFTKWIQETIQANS

[1] = Inhibition of human chymotrypsin using Suc-Ala-Ala-Pro-Phe-MCA as substrate preincubated for 10 mins followed by substrate addition measured after 30 mins by fluorescence assay
Trypsin = Trypsin (Homo sapiens, UniProt P07477+P07478+P35030); test: Inhibition of human trypsin using Boc-Gln-Ala-Arg-MCA as substrate preincubated for 10 mins followed by substrate addition measured after 30 mins by fluorescence assay; assay type: protein assay

Chain of Kallikrein-7 (P49862 whole entry): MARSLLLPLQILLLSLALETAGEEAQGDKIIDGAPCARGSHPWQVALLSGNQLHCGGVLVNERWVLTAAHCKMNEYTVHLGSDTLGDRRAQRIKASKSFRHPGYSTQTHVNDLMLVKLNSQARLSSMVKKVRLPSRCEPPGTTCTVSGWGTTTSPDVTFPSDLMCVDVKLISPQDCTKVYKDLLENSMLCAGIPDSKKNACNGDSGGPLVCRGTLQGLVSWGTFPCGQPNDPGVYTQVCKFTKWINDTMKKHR

Structure (SMILES)	IC50 (Kallikrein-7)	IC50 (Kallikrein-5)	IC50 [1]	IC50 (Trypsin)
COc1ccc(Cl)cc1C[C@@H]1CN/C(=N\N(C)C)CN(CC(=O)Nc2cccc(S(=O)(=O)N(C)C)c2)C1=O	990 nM			
COc1ccc(Cl)cc1C[C@@H]1CN/C(=N\N(C)C)CN(CC(=O)Nc2cccc(C#N)c2)C1=O	5300 nM			
CCC[C@@H](C(=O)Nc1cccc(-c2cnn(C)c2)c1)N1C/C(=N/N(C)C)NC[C@@H](Cc2cc(Cl)ccc2OC)C1=O	48 nM	> 30000 nM	1300 nM	> 30000 nM
COc1ccc(Cl)cc1C[C@@H]1CN/C(=N\N(C)C)CN(CC(=O)Nc2cccc(-c3cnn(C)c3)c2)C1=O	520 nM	> 30000 nM	> 30000 nM	> 30000 nM
COc1ccc(Cl)cc1C[C@@H]1CN/C(=N\N(C)C)CN(CC(=O)Nc2cccc(C(=O)N(C)C)c2)C1=O	2500 nM			
COc1ccc(Cl)cc1C[C@@H]1CN/C(=N\N(C)C)CN(CC(=O)Nc2cccc(-c3ccoc3)c2)C1=O	670 nM			
CCCC[C@H](C(=O)Nc1cccc(-c2cnn(C)c2)c1)N1C/C(=N/N(C)C)NC[C@@H](Cc2cc(Cl)ccc2OC)C1=O	4100 nM			
COc1cccc(NC(=O)CN2C/C(=N/N(C)C)NC[C@@H](Cc3cc(Cl)ccc3OC)C2=O)c1	2700 nM			
CNC(=O)c1cccc(NC(=O)CN2C/C(=N/N(C)C)NC[C@@H](Cc3cc(Cl)ccc3OC)C2=O)c1	940 nM			
CC[C@@H](C(=O)Nc1cccc(-c2cnn(C)c2)c1)N1C/C(=N/N(C)C)NC[C@@H](Cc2cc(Cl)ccc2OC)C1=O	450 nM			
COc1ccc(Cl)cc1C[C@@H]1CN/C(=N\N(C)C)CN([C@@H](C)C(=O)Nc2cccc(-c3cnn(C)c3)c2)C1=O	58 nM	> 30000 nM	3100 nM	> 30000 nM
COc1ccc(Cl)cc1C[C@@H]1CN/C(=N\N(C)C)CN(CC(=O)Nc2cccc(C(F)(F)F)c2)C1=O	4300 nM			
COc1ccc(Cl)cc1C[C@@H]1CN/C(=N\N(C)C)CN(CC(=O)Nc2cccc(-c3ccco3)c2)C1=O	590 nM			
CCC[C@H](C(=O)Nc1cccc(-c2cnn(C)c2)c1)N1C/C(=N/N(C)C)NC[C@@H](Cc2cc(Cl)ccc2OC)C1=O	7000 nM			
CC[C@H](C(=O)Nc1cccc(-c2cnn(C)c2)c1)N1C/C(=N/N(C)C)NC[C@@H](Cc2cc(Cl)ccc2OC)C1=O	2800 nM			
COc1ccc(Cl)cc1C[C@@H]1CN/C(=N\N(C)C)CN(CC(=O)Nc2cccc(S(=O)(=O)C(F)(F)F)c2)C1=O	3900 nM			
COc1ccc(Cl)cc1C[C@@H]1CN/C(=N\N(C)C)CN([C@H](C)C(=O)Nc2cccc(-c3cnn(C)c3)c2)C1=O	920 nM			
COc1ccc(Cl)cc1C[C@@H]1CN/C(=N\N(C)C)CN(CC(=O)Nc2cccc(-c3ccsc3)c2)C1=O	1500 nM			
COc1ccc(Cl)cc1C[C@@H]1CN/C(=N\N(C)C)CN(CC(=O)Nc2cccc(-c3cccs3)c2)C1=O	870 nM			
CCCC[C@@H](C(=O)Nc1cccc(-c2cnn(C)c2)c1)N1C/C(=N/N(C)C)NC[C@@H](Cc2cc(Cl)ccc2OC)C1=O	110 nM			
